Here are results for 7 molecules from US11590089B2, “Beta-2 selective adrenergic receptor agonists” (The Board of Trustees of the Leland Stanford Junior …, priority 2017, dated 2023).

For one test, the target named is T1, α2A-AR (Homo sapiens, UniProt P08913).
T1 sequence (P08913 1-465): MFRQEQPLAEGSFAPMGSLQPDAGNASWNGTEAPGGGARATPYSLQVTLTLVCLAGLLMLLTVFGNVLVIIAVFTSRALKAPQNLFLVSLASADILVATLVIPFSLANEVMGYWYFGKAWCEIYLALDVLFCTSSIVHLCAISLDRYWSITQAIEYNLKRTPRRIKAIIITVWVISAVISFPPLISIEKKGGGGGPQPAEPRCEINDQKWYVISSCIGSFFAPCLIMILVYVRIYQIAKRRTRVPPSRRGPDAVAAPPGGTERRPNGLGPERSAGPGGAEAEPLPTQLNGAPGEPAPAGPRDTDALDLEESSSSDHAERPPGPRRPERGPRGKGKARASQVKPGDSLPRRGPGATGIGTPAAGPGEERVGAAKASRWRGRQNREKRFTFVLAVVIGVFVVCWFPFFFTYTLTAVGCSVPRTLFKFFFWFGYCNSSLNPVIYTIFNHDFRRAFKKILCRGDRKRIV
Kind of test: radioligand binding assay, α2A-AR, [3H]RX821002. The following applies: radioligand [3H]RX821002; values given as a range are from screening experiments with a low number of repeats.

Test [1] concerns the target T2, β1-AR (Homo sapiens, UniProt P08588). Kind of test: β-arrestin-2 recruitment assay at β1-AR. It counts as cell-based. As to conditions: for pEC50: n.d. = could not be determined because of lack of activity, ranges from screening experiments with a low number of repeats, read-out: β-arrestin-2 recruitment β1-AR EC50; for β-arrestin-2 recruitment β1-AR Emax: relative to norepinephrine.
Target sequence in this assay (P08588 whole entry): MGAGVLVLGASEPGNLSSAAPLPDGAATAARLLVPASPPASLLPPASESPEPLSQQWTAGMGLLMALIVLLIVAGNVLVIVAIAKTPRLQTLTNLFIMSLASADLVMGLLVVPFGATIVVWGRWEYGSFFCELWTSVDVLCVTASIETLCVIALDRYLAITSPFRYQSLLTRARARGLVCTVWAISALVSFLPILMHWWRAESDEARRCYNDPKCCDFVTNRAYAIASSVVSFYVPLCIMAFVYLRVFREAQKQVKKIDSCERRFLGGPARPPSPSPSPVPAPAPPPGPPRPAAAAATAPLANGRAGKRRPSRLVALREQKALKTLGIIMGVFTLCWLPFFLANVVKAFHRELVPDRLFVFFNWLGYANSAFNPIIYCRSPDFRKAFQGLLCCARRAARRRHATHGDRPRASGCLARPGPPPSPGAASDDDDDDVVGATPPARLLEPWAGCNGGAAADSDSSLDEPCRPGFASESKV
Target sequence in this assay (P32121 whole entry partner): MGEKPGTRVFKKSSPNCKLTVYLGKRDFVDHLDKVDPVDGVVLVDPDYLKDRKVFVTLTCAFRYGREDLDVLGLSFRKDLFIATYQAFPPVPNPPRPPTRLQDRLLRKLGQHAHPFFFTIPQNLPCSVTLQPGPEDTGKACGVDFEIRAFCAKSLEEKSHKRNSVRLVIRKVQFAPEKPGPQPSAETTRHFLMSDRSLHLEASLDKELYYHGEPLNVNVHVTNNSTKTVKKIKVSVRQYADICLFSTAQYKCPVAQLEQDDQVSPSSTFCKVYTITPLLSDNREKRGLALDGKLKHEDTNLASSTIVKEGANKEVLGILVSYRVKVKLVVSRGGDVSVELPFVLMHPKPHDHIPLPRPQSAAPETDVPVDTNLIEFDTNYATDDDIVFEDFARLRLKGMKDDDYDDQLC

Test [2] has as its target T3, β2-AR (Homo sapiens, UniProt P07550). Kind of test: radioligand binding assay, β2-AR, [3H]CGP12177. As to conditions: radioligand [3H]CGP12177; values given as a range are from screening experiments with a low number of repeats; read-out: Ki β2-AR [3H]CGP12177. The protocol:
(§1) The binding affinities of exemplary compounds of interest at β1AR and β2AR were evaluated in a binding assay.
Target sequence in this assay (P07550 whole entry): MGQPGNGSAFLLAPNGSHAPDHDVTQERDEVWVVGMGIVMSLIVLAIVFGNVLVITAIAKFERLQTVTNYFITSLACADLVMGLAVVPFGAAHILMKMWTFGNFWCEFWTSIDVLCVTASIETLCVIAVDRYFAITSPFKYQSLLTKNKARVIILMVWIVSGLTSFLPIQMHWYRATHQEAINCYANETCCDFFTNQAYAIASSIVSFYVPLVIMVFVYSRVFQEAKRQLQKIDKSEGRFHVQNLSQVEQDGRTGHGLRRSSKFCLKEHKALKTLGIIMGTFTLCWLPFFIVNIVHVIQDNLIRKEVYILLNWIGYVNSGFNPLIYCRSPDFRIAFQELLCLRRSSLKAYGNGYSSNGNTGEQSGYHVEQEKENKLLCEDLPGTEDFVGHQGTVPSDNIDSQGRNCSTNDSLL

The target in the next test is T4, •1A-AR (Homo sapiens, UniProt P35348).
T4 sequence (P35348 1-466): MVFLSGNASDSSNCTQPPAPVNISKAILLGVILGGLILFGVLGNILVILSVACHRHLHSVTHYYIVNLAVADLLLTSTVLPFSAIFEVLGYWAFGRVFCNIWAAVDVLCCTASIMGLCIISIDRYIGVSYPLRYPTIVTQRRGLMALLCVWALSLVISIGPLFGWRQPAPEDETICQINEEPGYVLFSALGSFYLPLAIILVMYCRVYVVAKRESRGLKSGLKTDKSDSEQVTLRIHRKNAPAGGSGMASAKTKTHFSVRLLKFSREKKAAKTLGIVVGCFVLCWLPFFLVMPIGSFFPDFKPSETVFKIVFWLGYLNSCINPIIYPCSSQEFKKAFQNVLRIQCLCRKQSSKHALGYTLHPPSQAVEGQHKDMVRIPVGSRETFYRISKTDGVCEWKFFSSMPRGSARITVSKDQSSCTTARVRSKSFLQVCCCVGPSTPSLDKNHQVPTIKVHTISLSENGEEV
Kind of test: radioligand binding assay, α1A-AR, [3H]prazosin.

Test [3] deals with T2, β1-AR. Kind of test: radioligand binding assay, β1-AR, [3H]CGP12177. As to conditions: radioligand [3H]CGP12177; values given as a range are from screening experiments with a low number of repeats; read-out: Ki β1-AR [3H]CGP12177. The method, then: as §1
Target sequence in this assay (P08588 whole entry): as the sequence (P08588 whole entry) above
Test [4] deals with T3, β2-AR. Kind of test: β-arrestin-2 recruitment assay at β2-AR. The format is cell-based. The following applies: for pEC50: ranges from screening experiments with a low number of repeats; for β-arrestin-2 recruitment β2-AR Emax: relative to norepinephrine.
Target sequence in this assay (P07550 whole entry): as the sequence (P07550 whole entry) above
Target sequence in this assay (P32121 whole entry partner): as the sequence (P32121 whole entry partner) above
[5] abbreviates: radioligand [3H]prazosin, values given as a range are from screening experiments with a low number of repeats, read-out: Ki •1A-AR [3H]prazosin.
Setting [6] is: n.d. = could not be determined because of lack of activity, read-out: β-arrestin-2 recruitment β2-AR EC50.

The structures appear in SMILES notation. pEC50, pKi: −log10 of the molar value. Read-outs that look alike come from different tables or passages of the source.

Consider `Oc1ccc2c(c1O)CC[C@@H](NC(CF)CF)[C@@H]2O` [LM 103, (5R,6R)-6-((1,3-difluoropropan-2-yl)amino)-5,6,7,8-tetrahydronaphthalene-1,2,5-triol], for which the pKi on α2A-AR is 4.28; on β2-AR [2], 6.20; at •1A-AR (setting [5]), under 4.00; at β1-AR [3] it was 5.00. Moreover, the pEC50 at β1-AR [1] was 4.92; on β2-AR [4] (setting [6]), 6.19. The “β-arrestin-2 recruitment β1-AR Emax” value on β1-AR [1] is listed as 18 % norepinephrine. Moreover, at β2-AR [4], the “β-arrestin-2 recruitment β2-AR Emax” value came out at 109 % norepinephrine.
With `Oc1ccc2c(c1O)CC[C@@H](NCC1CCC1)[C@@H]2O` [LM 110, (5R,6R)-6-((cyclobutylmethyl)amino)-5,6,7,8-tetrahydronaphthalene-1,2,5-triol], the pKi is 5.00 at α2A-AR, 6.77 on β2-AR [2], 5.40 at •1A-AR and 4.29 on β1-AR [3]. The negative logarithm of the EC50 (pEC50) on β1-AR [1] was 4.66; at β2-AR [4] (β-arrestin-2 recruitment β2-AR EC50, n.d. = could not be determined because of lack of activity), 7.10. In addition, on β1-AR [1], the “β-arrestin-2 recruitment β1-AR Emax” value is given as 25 % norepinephrine. The “β-arrestin-2 recruitment β2-AR Emax” value on β2-AR [4] is 116 % norepinephrine.
Regarding `Oc1ccc2c(c1O)CC[C@@H](NCC1CC(F)(F)C1)[C@@H]2O` [LM 112, (5R,6R)-6-(((3,3-difluorocyclobutyl)methyl)amino)-5,6,7,8-tetrahydronaphthalene-1,2,5-triol], the negative-log Ki (pKi) on α2A-AR was 4.82 to 5.10; on β2-AR [2], 7.15 to 7.60; at •1A-AR it was 5.10 to 5.30; on β1-AR [3] it was 4.92 to 5.30. In addition, the pEC50 on β1-AR [1] was 4.85 to 5.22; at β2-AR [4] (setting [6]), 7.70 to 8.00. Moreover, the “β-arrestin-2 recruitment β1-AR Emax” value at β1-AR [1] is given as 45 % norepinephrine. Besides, the “β-arrestin-2 recruitment β2-AR Emax” value at β2-AR [4] is 124 % norepinephrine.
For the molecule `Oc1ccc2c(c1O)CC[C@@H](NC1COC1)[C@@H]2O` [LM 113, (5R,6R)-6-(oxetan-3-ylamino)-5,6,7,8-tetrahydronaphthalene-1,2,5-triol], the pKi is 4.35 to 4.60 on α2A-AR, 5.82 to 6.22 on β2-AR [2], at most 4.22 at •1A-AR (setting [5]) and at most 4.30 at β1-AR [3]. The values for the pEC50 on β1-AR [1] and on β2-AR [4] (setting [6]) were under 4.00 and 6.40 to 6.70, respectively. Further, the “β-arrestin-2 recruitment β1-AR Emax” value at β1-AR [1] amounted to 20 % norepinephrine. Moreover, on β2-AR [4], the “β-arrestin-2 recruitment β2-AR Emax” value stood at 115 % norepinephrine.
Take `COCC(COC)N[C@@H]1CCc2c(ccc(O)c2O)[C@H]1O` [LM 114, (5R,6R)-6-((1,3-dimethoxypropan-2-yl)amino)-5,6,7,8-tetrahydronaphthalene-1,2,5-triol]: the pKi was 4.92 to 5.22 on α2A-AR, 5.82 to 6.22 at β2-AR [2], 4.70 to 5.00 on •1A-AR (setting [5]) and 4.10 to 4.40 on β1-AR [3]. Also, the values for the negative logarithm of the EC50 (pEC50) at β1-AR [1] and at β2-AR [4] (setting [6]) were 4.22 to 4.52 and 6.00 to 6.30, respectively. Besides, on β1-AR [1], the “β-arrestin-2 recruitment β1-AR Emax” value amounted to 35 % norepinephrine. Also, the “β-arrestin-2 recruitment β2-AR Emax” value on β2-AR [4] came out at 125 % norepinephrine.
Take `CC(C)(C)CN[C@@H]1CCc2c(ccc(O)c2O)[C@H]1O` [LM 117, (5R,6R)-6-(neopentylamino)-5,6,7,8-tetrahydronaphthalene-1,2,5-triol]: the pKi at α2A-AR is 4.52 to 4.82; on β2-AR [2], 6.15 to 6.60; on •1A-AR (setting [5]) it was 4.70 to 5.00; on β1-AR [3], at most 4.30. Moreover, the pEC50 on β1-AR [1] is 4.70 to 5.00; on β2-AR [4] (setting [6]), 6.92 to 7.30. Further, on β1-AR [1], the “β-arrestin-2 recruitment β1-AR Emax” value was 17 % norepinephrine. The “β-arrestin-2 recruitment β2-AR Emax” value at β2-AR [4] came out at 116 % norepinephrine.
For the molecule `C[Si](C)(C)CN[C@@H]1CCc2c(ccc(O)c2O)[C@H]1O` [LM 118, (5R,6R)-6-(((trimethylsilyl)methyl)amino)-5,6,7,8-tetrahydronaphthalene-1,2,5-triol], the pKi was 4.82 to 5.10 at α2A-AR, 6.30 to 6.70 at β2-AR [2], 5.00 to 5.30 at •1A-AR (setting [5]) and at most 4.30 at β1-AR [3]. The pEC50 was 4.15 to 4.60 at β1-AR [1] and 6.60 to 6.92 at β2-AR [4] (setting [6]). Further, on β1-AR [1], the “β-arrestin-2 recruitment β1-AR Emax” value amounted to 40 % norepinephrine. For the same molecule, the “β-arrestin-2 recruitment β2-AR Emax” value at β2-AR [4] stood at 119 % norepinephrine.
